assay: recombinant barcode read abundance after kanamycin selection (control-corrected) (log10(CPM+1)); higher = more efficient recombination; sequences stand for … in AGTGCAGAGAAAATCGGCCAGTTTTCTCTGCCTGCAGTCCGCATGCCGT…AGATTTATGCAGCGGACTGCCTTTCTCCCAAAGTGATAAACCGGACAGTATCATGGACCGGTTTTCCCGGTAATCCGTATTTGCAAGGTTGGTTTCACT; site = the 11-nt target
Summary of the method: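 Two replicates per condition were plated: chloramphenicol/ampicillin LB agar for the control, and chloramphenicol/ampicillin/kanamycin with 0.1 mM IPTG for selection. The pooled E. coli screen behind them paired targets with IS621 bridge RNA target-binding loops. Recombination efficiency is expressed from averaged, control-corrected barcode counts per million at recombinant junctions, as log10(CPM+1).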
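Also: IS621 recombinase and bridge RNA in Escherichia coli cells.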

| Sequence | recombinant barcode read abundance (log10) |
| --- | --- |
| CATTCCTCTTGGGTTCTAACCTGTTGCCT (site CGTTCCTCTAG) | 0.0677 |
| CACTTAGCTTGGGTTCTAACCTGTTGCCT (site CACTTAGCTAG) | 0.269 |
| CGACTGACTTGGGTTCTAACCTGTTGCCT (site CGACTGACTAG) | 0.229 |
| CACTGCTCTTGGGTTCTAACCTGTTGCCT (site CACTGGTCTAG) | 0.151 |
| CTCGTACCTTGGGTTCTAACCTGTTGCGG (site CTCGTAGCTCC) | 0.0696 |
| CTTCGTCCTTGGGTTCTAACCTGTTGCCT (site CTTCGTCCTAC) | 0.0309 |
| AACCCTACTTGGGTTCTAACCTGTTGCCT (site CACCCTACTAG) | 0.328 |
| GACCTGGCTTGGGTTCTAACCTGTTGCCG (site GACCTGGCTCG) | 0.886 |
| TCGAACCCTTGGGTTCTAACCTGTTGCGA (site TCGCACCCTTC) | 0.0454 |
| AAGCAATCTTGGGTTCTAACCTGTTGCCT (site AAGCATTCTAG) | 0.126 |
| GGGTCGGCTTGGGTTCTAACCTGTTGCGC (site GGGTCGGCTTC) | 0.0981 |
| GTCCGTCCTTGGGTTCTAACCTGTTGCTT (site GTCCGTCCTAT) | 0.416 |
| CACTGCTCTTGGGTTCTAACCTGTTGCCT (site CACTGTTCTAG) | 0.173 |
| TACACAGCTTGGGTTCTAACCTGTTGCCT (site TACACAGCTAG) | 0.909 |
| ACCTTGCCTTGGGTTCTAACCTGTTGCTA (site ACCTTGCCTTA) | 0.478 |
| TCCTAATCTTGGGTTCTAACCTGTTGCAT (site TCCTAACCTAG) | 0.0364 |
| GATACGTCTTGGGTTCTAACCTGTTGCCT (site GATACGTCTAG) | 0.623 |
| AAGACCTCTTGGGTTCTAACCTGTTGCTT (site AAGTCCTCTAA) | 0.134 |
| CTAGTAGCTTGGGTTCTAACCTGTTGCGG (site CTAGTAGCTAC) | 0.553 |
| GAGCCACCTTGGGTTCTAACCTGTTGCCT (site AAGCCACCTAG) | 0.868 |
| GCCGGCTCTTGGGTTCTAACCTGTTGCCT (site GACGGCTCTAG) | 0.182 |
| GTCTATGCTTGGGTTCTAACCTGTTGCCT (site GTCTATGCTAG) | 0.0906 |

| Sequence | recombinant barcode read abundance (log10) |
| --- | --- |
| ACGCGGACTTGGGTTCTAACCTGTTGCCT (site ACGCGGACTAG) | 1.21 |
| ATGCACGCTTGGGTTCTAACCTGTTGCCT (site TATATGACTCC) | 0.036 |
| GAGGTAACTTGGGTTCTAACCTGTTGCCT (site GAGGTAACTAG) | 0.0487 |
| CATTGGACTTGGGTTCTAACCTGTTGCTT (site TATTGGACTAA) | 0.111 |
| CGGGCAGCTTGGGTTCTAACCTGTTGCCT (site CGAGCAGCTAG) | 0.0303 |
| AATCTAACTTGGGTTCTAACCTGTTGCCT (site AATCTAACTAG) | 0.527 |
| GACCGAGCTTGGGTTCTAACCTGTTGCCT (site GACCGCGCTAG) | 0.0201 |
| ATAAGGACTTGGGTTCTAACCTGTTGCTA (site ATATGGACTTA) | 0.52 |
| TACTTGCCTTGGGTTCTAACCTGTTGCCT (site TAATTGCCTAG) | 0.0842 |
| GATTAGACTTGGGTTCTAACCTGTTGCCT (site TATTAGACTAG) | 0.331 |
| CGCTGTCCTTGGGTTCTAACCTGTTGCTT (site CGCTGACCTAA) | 0.156 |
| CCTGAGACTTGGGTTCTAACCTGTTGCAG (site CCTGAGACTCT) | 1.37 |
| CCTAAGACTTGGGTTCTAACCTGTTGCCG (site CCTAAGACTCG) | 0.263 |
| ATCGTAGCTTGGGTTCTAACCTGTTGCCA (site ATCGTAGCTTG) | 0.228 |
| GAAGTCGCTTGGGTTCTAACCTGTTGCCT (site GAAGGCGCTAG) | 0 |
| ACGGCGCCTTGGGTTCTAACCTGTTGCCT (site AGGGCGCCTAG) | 0.101 |
| CTACTTACTTGGGTTCTAACCTGTTGCCT (site CTATTTACTAG) | 0.1 |
| CCAACCGCTTGGGTTCTAACCTGTTGCCT (site CCAACCGCTAG) | 0.423 |
| GCGAACCCTTGGGTTCTAACCTGTTGCTT (site TCGAACCCTAA) | 0.0595 |
| CACATTCCTTGGGTTCTAACCTGTTGCCT (site TACATTCCTAG) | 0.06 |
| GGATCCACTTGGGTTCTAACCTGTTGCCA (site GGATCCACTTG) | 0.117 |
| ACCGAGACTTGGGTTCTAACCTGTTGCGG (site AGTGAGACTCC) | 0.0628 |

| Sequence | recombinant barcode read abundance (log10) |
| --- | --- |
| ATCGGATCTTGGGTTCTAACCTGTTGCCG (site ATCGGATCTCG) | 0.782 |
| GTCATGTCTTGGGTTCTAACCTGTTGCCT (site GCCATGTCTAG) | 0.781 |
| CATAGACCTTGGGTTCTAACCTGTTGCAT (site CATAGTCCTAT) | 0.0411 |
| GCACGCTCTTGGGTTCTAACCTGTTGCCT (site GCACACTCTAG) | 0.607 |
| GGCGACCCTTGGGTTCTAACCTGTTGCCT (site GGCGACCCTAG) | 0.99 |
| AGTCAGTCTTGGGTTCTAACCTGTTGCCA (site AGTCAGTCTTG) | 0.0748 |
| GTGTCTCCTTGGGTTCTAACCTGTTGCCG (site GTCTCTCCTCG) | 0.0207 |
| TACTGCTCTTGGGTTCTAACCTGTTGCTT (site TACGGCTCTAA) | 0.0516 |
| GAGAGGTCTTGGGTTCTAACCTGTTGCGT (site GAGAGGTCTAA) | 0.502 |
| GTCGATCCTTGGGTTCTAACCTGTTGCCT (site GGCGATCCTAG) | 0.221 |
| TCGCGTGCTTGGGTTCTAACCTGTTGCGG (site CATTCCACTAG) | 0.0782 |
| TGAAACGCTTGGGTTCTAACCTGTTGCTT (site TGAAGCCCTAA) | 0.0163 |
| ACTACTACTTGGGTTCTAACCTGTTGCCT (site ACTACTACTAG) | 0.172 |
| CTCCGAACTTGGGTTCTAACCTGTTGCAG (site TCATATCCTAG) | 0.174 |
| GGCAGTTCTTGGGTTCTAACCTGTTGCTT (site GGCAGATCTAA) | 0.0437 |
| TGGCGTACTTGGGTTCTAACCTGTTGCCT (site TGGCGTACTAG) | 0.229 |
| CAGGATGCTTGGGTTCTAACCTGTTGCCT (site CATGATGCTAG) | 0.0284 |
| GGGGAAGCTTGGGTTCTAACCTGTTGCCT (site GCGGAAGCTAG) | 0.343 |
| ATGGGCCCTTGGGTTCTAACCTGTTGCTT (site ATGGGCCCTAA) | 2.01 |
| TGTTGGCCTTGGGTTCTAACCTGTTGCCT (site TGTTGCACTAG) | 0.0375 |
| GCAATGACTTGGGTTCTAACCTGTTGCCT (site GTAATGACTAG) | 0.292 |
| TAATGGTCTTGGGTTCTAACCTGTTGCAT (site TAATGGTCTAT) | 1.61 |

| Sequence | recombinant barcode read abundance (log10) |
| --- | --- |
| GGGGAAGCTTGGGTTCTAACCTGTTGCCT (site GAGGAAGCTAG) | 0.276 |
| GGAGGTACTTGGGTTCTAACCTGTTGCCT (site GGAGGAACTAG) | 0.0658 |
| GGCTTCCCTTGGGTTCTAACCTGTTGCCT (site GGCATCCCTAG) | 0.299 |
| TCTGTGTCTTGGGTTCTAACCTGTTGCTA (site TCTGTGTCTTA) | 1.46 |
| TATAAAACTTGGGTTCTAACCTGTTGCCT (site TATAAAACTAG) | 0.0338 |
| TAGAAGCCTTGGGTTCTAACCTGTTGCTA (site TAGAAGCCTTA) | 0.463 |
| CCTCGGGCTTGGGTTCTAACCTGTTGCAG (site CTTCGGGCTCT) | 0.101 |
| TAGTTTACTTGGGTTCTAACCTGTTGCAG (site ACTCCAGCTAG) | 0.294 |
| TGTACGCCTTGGGTTCTAACCTGTTGCCT (site GAGGTAACTGT) | 0.0511 |
| GTCCGTCCTTGGGTTCTAACCTGTTGCTT (site GTCCGTCCTAC) | 0.0973 |
| CAAAGTCCTTGGGTTCTAACCTGTTGCCT (site CAAAGTCCTAA) | 0.013 |
| TGGATCACTTGGGTTCTAACCTGTTGCCT (site TGGACCACTAG) | 0.0457 |
| TAACGTACTTGGGTTCTAACCTGTTGCAT (site TAACTTACTAT) | 0.103 |
| GTCTTAACTTGGGTTCTAACCTGTTGCCG (site GTCTTAACTCG) | 0.338 |
| TCTTGGACTTGGGTTCTAACCTGTTGCTT (site TCTTGGACTCA) | 0.145 |
| ATGCGTTCTTGGGTTCTAACCTGTTGCCT (site AGGTGTTCTAG) | 0.203 |
| CCTTCCACTTGGGTTCTAACCTGTTGCCT (site TCTTCCACTAG) | 0.0607 |
| GTTTCACCTTGGGTTCTAACCTGTTGCCT (site GTTACACCTAG) | 0.128 |
| AGACTAACTTGGGTTCTAACCTGTTGCCT (site AGACTAACTAG) | 1.54 |
| GTTTGGCCTTGGGTTCTAACCTGTTGCTT (site GTTTGCCCTAA) | 0.154 |

Reference: the supplement of paper PMC11208160
